Here are results for 1 substance from patent US6753024B2, “Method for making a food preservative and for preserving food” (The United States of America as represented by the …, priority 2002, dated 2004).

The subject of this test is Micrococcus luteus ATCC 10240. The test can be described thus: Inhibition of test bacteria by nisin produced in fermented poi. The format is cell-based. The following applies: nisin produced by Lactococcus lactis subspecies lactis ATCC 11454 in taro; test bacteria known to cause food spoilage. From the text: The nisin inhibits a test bacteria, Micrococcus luteus ATCC 10240, known to cause food spoilage. Thus, the Lactococcus lactis subspecies lactis ATCC 11454 grows in the taro and produces a bacteriocin therein.

Regarding nisin, the “inhibition of test bacteria” value is on record as “inhibits”.
